Data from patent US20070037788A1, “Tricyclic steroid hormone nuclear receptor modulators” (Eli Lilly and Company, priority 2003, published 2007).

What was measured:
human MR = target: T1, human MR (Homo sapiens, UniProt P08235); assay: Mineralocorticoid Receptor Binding Assay (Method 1); settings: [3H]-aldosterone
T1 construct: The full length human MR gene is cloned from a human kidney or human brain cDNA library; made in house; host or cells: SF9 insect cells (baculovirus)
T1 sequence (P08235 1-984): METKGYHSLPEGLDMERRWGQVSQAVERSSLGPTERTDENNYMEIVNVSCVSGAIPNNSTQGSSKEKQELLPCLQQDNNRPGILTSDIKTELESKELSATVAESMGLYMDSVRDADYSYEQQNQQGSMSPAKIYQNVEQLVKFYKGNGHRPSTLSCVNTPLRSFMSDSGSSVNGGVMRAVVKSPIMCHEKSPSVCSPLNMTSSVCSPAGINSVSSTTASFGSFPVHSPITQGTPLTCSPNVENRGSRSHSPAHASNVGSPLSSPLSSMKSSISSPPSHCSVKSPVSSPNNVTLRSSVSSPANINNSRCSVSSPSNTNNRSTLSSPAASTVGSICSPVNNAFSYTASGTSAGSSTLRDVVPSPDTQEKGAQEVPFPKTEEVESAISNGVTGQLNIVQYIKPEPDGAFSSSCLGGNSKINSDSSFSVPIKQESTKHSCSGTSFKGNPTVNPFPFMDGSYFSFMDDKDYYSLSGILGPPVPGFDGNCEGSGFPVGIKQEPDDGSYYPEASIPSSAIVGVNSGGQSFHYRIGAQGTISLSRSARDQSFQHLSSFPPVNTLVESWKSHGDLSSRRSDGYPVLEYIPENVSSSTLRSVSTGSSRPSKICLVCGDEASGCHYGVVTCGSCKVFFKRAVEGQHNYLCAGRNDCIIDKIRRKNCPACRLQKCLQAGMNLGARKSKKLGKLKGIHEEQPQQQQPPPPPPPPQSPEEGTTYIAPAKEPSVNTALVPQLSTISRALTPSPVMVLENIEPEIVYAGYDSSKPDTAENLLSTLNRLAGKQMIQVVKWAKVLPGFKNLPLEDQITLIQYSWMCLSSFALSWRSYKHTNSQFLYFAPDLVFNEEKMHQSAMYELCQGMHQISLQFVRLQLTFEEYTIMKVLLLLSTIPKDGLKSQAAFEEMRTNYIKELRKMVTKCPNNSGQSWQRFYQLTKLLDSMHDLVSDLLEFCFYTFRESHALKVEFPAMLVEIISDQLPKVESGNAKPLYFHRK
Procedure: The full length human MR gene is cloned from a human kidney or human brain cDNA library. Briefly, using synthetic oligonucleotide primers (Eli Lilly and Company, Indianapolis) directed to nucleotides 20-54 and 3700-3666 of the human MR, polymerase chain reaction (PCR) is performed under standard conditions using a human cDNA library. The PCR reaction is performed in a final volume of 50 μl containing about 1 μl of a 50× stock solution of polymerase; about 1 μl of a 50× stock solution of DNTP; about 5 μl of an appropriate PCR buffer; about 1 μl of each primer; about 5 μl of a H. kidney or H. brain cDNA library; and about 36 μl of water. The reaction is allowed to denature for about 30 seconds at 95 degrees Celsius, anneal for about 30 seconds at 55 degrees Celsius, and extend for about 5 minutes at 72 degrees Celsius, the sequence being repeated for a total of about 35 cycles. The desired PCR product (3.68 Kb) is confirmed by gel electrophoresis and subsequently cut from the gel and stored at about −20 degrees Celsius until extraction. To extract the cDNA product from the agarose gel, the QIAEX II Gel Extraction protocol (QIAGEN, Inc.) is employed according to the manufacturer's instructions. Following extraction, the MR cDNA is cloned into an appropriate cloning vector (Zero Blunt TOPO PCR Cloning Kit (Invitrogen, Inc.) and a pAcHLT-baculovirus transfer vector (B.D./Pharminogen), then expressed in SF9 insect cells, essentially according to manufacturer's instructions. Sf9 cells are grown at a scale where gram quantity cell pellets are obtained for subsequent use in the MR binding assay. Harvested cell pellets are lysed by repeated freeze-thaw cycles (about 4) in a suitable lysis buffer then centrifuged at about 1×10^3 G (with the supernatant being saved for future assays).
MR binding assays are performed in a final total volume of about 250 μl containing about 20-25 μg of protein and 0.5 nM of [^3H]-aldosterone plus varying concentrations of test compound or vehicle. The assay binding buffer consists of 30 mM sodium molybdate, 30 mM of TRIS-HCl, 5 mM sodium phosphate, 5 mM sodium pyrophosphate, and about 10% glycerol, pH=7.5.
Briefly, assays are prepared at RT in 96-well Falcon 3072 plates, each well containing 210 μl of binding buffer, 10 μl of [^3H]-aldosterone, 10 μl of test compound/vehicle, and 20 μl of the resuspended receptor protein extract. Incubations are carried out at 4 degrees Celsius with shaking for about 16 hours. 200 μl aliquots of each incubation are filtered onto Millipore HA 0.45 micron 96-well filter plates, pre-moistened with cold 30 mM TRIS-HCl. The filter plates are suctioned dry with vacuum and immediately washed 3× with cold 30 mM TRIS-HCl. The plates are then punched out and the amount of receptor-ligand complex is determined by liquid scintillation counting using 4 ml of Ready Protein Plus™ liquid scintillation cocktail.

[1] = in combination with standard CHF therapy, patients suffering from advanced CHF; cited from earlier work
glucocorticoid receptor = target: T2, glucocorticoid receptor (Homo sapiens, UniProt P04150); assay: Glucocorticoid Receptor Binding Assay (Method 1); settings: A549 cell extract, [3H]-dexamethasone, read-out: GR Ki
T2 construct: containing 50-200 ug of A549 cell extract and 1.86 nM [^3H]-dexamethasone; host or cells: A549 human lung epithelial cells
T2 sequence (P04150 1-777): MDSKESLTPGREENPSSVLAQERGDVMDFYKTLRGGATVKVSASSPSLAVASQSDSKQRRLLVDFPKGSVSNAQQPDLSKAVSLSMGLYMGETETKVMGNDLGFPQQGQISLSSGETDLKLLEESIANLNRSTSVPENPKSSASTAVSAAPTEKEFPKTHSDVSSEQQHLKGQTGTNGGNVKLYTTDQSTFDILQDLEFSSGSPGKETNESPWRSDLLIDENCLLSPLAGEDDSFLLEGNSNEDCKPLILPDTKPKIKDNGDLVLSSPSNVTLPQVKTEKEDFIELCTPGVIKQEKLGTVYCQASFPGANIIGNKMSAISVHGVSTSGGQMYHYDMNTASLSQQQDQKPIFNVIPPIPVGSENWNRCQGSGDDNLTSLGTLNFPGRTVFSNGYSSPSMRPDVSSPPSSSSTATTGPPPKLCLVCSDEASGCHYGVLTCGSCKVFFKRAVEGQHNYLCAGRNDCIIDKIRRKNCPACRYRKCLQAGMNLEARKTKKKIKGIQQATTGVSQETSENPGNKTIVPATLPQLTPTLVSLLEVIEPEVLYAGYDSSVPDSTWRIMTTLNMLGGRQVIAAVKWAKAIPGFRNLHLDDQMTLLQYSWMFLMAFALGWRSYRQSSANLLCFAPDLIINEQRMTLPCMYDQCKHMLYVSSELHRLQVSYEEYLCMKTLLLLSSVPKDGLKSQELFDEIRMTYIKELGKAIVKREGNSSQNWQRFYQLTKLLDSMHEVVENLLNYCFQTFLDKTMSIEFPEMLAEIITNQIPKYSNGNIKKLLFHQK
Procedure: A549 human lung epithelial cells (ATCC) are grown at a scale where gram quantity cell pellets are obtained. Harvested cell pellets are washed twice in cold phosphate buffered saline, centrifuged, and resuspended in cold assay binding buffer. The assay binding buffer consists of 10% glycerol, 50 mM Tris-HCl (pH7.2), 75 mM sodium chloride, 1.5 mM magnesium chloride, 1.5 mM EDTA, and 10 mM sodium molybdate. Cell suspensions were lysed via sonication, centrifuged, and the “extract” supernatant is snap frozen and stored at −80 C until needed.
GR binding assays are performed in a final volume of 140 ul containing 50-200 ug of A549 cell extract and 1.86 nM [^3H]-dexamethasone (Amersham) plus varying concentrations of test compound or vehicle. Briefly, assays are prepared at RT in 96-well Fisher 3356 plates, each well containing 100 ul of A549 cell extract, 20 ul of [^3H]-dexamethasone, and 20 ul of test compound/vehicle. Incubations are carried out at 4 degrees Celsius for 16 hours. After incubation, 70 ul of 3× dextran-coated charcoal solution is added to each reaction, mixed, and incubated for 8 minutes at RT. […] 200 ul of Microscint-20 scinillant (Packard Instruments) is added to each well and amount of receptor bound radioligand is determined using Packard Instruments TopCount instrument.

Compound | Ki (human MR) [nM] | also measured
CC(=O)S[C@@H]1CC2=CC(=O)CC[C@]2(C)[C@H]2CC[C@@]3(C)[C@@H](CC[C@@]34CCC(=O)O4)[C@H]12 [spironolactone] |  | reduced cardiac related mortality [1]: 30%; reduced frequency of hospitalization [1]: 35%
O=c1[nH]c2cc(C=C3c4ccc(F)cc4CCc4cc(F)ccc43)ccc2n1CCCN1CCOCC1 [Example 48] | < 500 | 
O=c1[nH]c2cc(C=C3c4ccc(F)cc4CCc4cc(F)ccc43)ccc2n1CCN1CCCC1 [Example 50] | < 500 | 
CN(C)CCn1c(=O)[nH]c2cc(/C=C3\c4ccccc4COc4cc(F)ccc43)ccc21 [Example 6] | < 500 | Ki (glucocorticoid receptor): < 10000 nM
CN1CC[C@@H](n2c(=O)[nH]c3cc(/C=C4/c5ccc(F)cc5OCc5c(F)cccc54)ccc32)C1 [Example 47] | < 500 | 

Further lines, with some results ahead:

Ki (human MR) [nM] | Compound | also measured
< 500 | CN1CCN(CCn2c(=O)[nH]c3cc(C=C4c5ccc(F)cc5CCc5cc(F)ccc54)ccc32)CC1 [Example 52] | 
< 500 | O=c1[nH]c2cc(C=C3c4ccc(F)cc4CCc4cc(F)ccc43)ccc2n1CCN1CCNCC1 [Example 49] | 
< 500 | CN(C)CCn1c(=O)[nH]c2cc(C=C3c4ccc(F)cc4CCc4cc(F)ccc43)ccc21 [Example 51] | 
